The source of these data is US11202792B2, “CD99 inhibitors and their uses” (GEORGETOWN UNIVERSITY, priority 2016, dated 2021).

Where two headings read alike, the source gives them in different places. A value given as a limit tells only on which side of the number the result lay.

The test system of one assay is SKES xenografts. Kind of assay: Orthotopic SKES xenograft, i.p. administration. The conditions noted are these: for tumor growth: i.p. In kind it is in vivo, SCID/beige mice. As to the method: (§1) All tumor tissues were fixed in 10% neutral buffered formalin for 24 h, dehydrated through a graded series of alcohols and cleared in xylenes prior to embedding in paraffin. Embedded tissues were cut into 5 μm thick sections and stained with hematoxylin and eosin (H&E). Immunohistochemical staining was performed for CD99 and caspase 3 (cleaved). Five micron sections from formalin fixed paraffin embedded tissues were de-paraffinized with xylenes and rehydrated through a graded alcohol series. Heat induced epitope retrieval was performed by immersing the tissue sections at 98° C. for 60 min in 10 mmol/L citrate buffer (pH 6.0). Immunohistochemical staining was performed using a horseradish peroxidase labeled polymer from Agilent (Santa Clara, Calif.) (#K4001, #K4003) according to manufacturer's instructions. Briefly, slides were treated with 3% hydrogen peroxide and 10% normal goat serum for 10 min each, and exposed to primary antibodies for CD99 (Abcam, #ab8855) at a 1:100 dilution and for caspase 3 (cleaved) (Biocare (Pacheco, Calif.), #CP229A) at a 1:90 dilution in Da Vinci Green for one hour and stained on an DAKO Autostainer. Slides were exposed to the appropriate HRP labeled polymer for 30 min and DAB chromogen (Dako (Santa Clara, Calif.) for 5 min. Slides were counterstained with Hematoxylin (Fisher, Harris Modified Hematoxylin), blued in 1% ammonium hydroxide, dehydrated, and mounted with Acrymount. Consecutive sections with the primary antibody omitted were used as negative controls. The sections were evaluated in a blinded fashion by a board certified pathologist.
(§2) The antitumor activity of drugs through intraperitoneal (i.p.) administration given once daily was determined. […] The in vivo potencies of drug treatments were evaluated by event-free survival curves, where tumors that reached 1.0 cm^3 in size considered an event.

In assay [1] the target is T1, CD99 homodimers in STA-ET-7.2 ES cells (Homo sapiens, UniProt P14209).
T1 construct: STA-ET-7.2 ES cells, which express the highest level of CD99 protein among all ES cell lines; endogenous in cells; host or cells: STA-ET-7.2
Kind of assay: Chemical cross-linking with BS3, CD99 homodimer formation. In kind it is cell-based. The conditions noted are these: 5 μmol/L, 1 h, then 1 mmol/L BS3; STA-ET-7.2 cells. The method, then:
The cells were rinsed 3 times with ice-cold PBS, and treated with 1 mmol/L BS^3 (Thermo Scientific) in PBS for 10 min at 37° C. according to manufacturer's instructions. […] Protein samples were then prepared by lysing the cross-linked cells in a lysis buffer as described above.
To address this, in a chemical cross-linking assay, STA-ET-7.2 ES cells were preincubated with the inhibitors for 1 h at a final concentration of 5 μmol/L followed by the addition of 1 mmol/L BS^3, a membrane-impermeable chemical cross-linking agent.

Assay [2] relates to leukemia cell lines MOLT-4 and Jurkat. The assay is described as follows: Cell viability IC50 panel, leukemia cell lines. In kind it is cell-based. The conditions noted are these: Homo sapiens. As to the method: (§3) The plate was installed into the RTCA system, and the electrical impedance (represented as cell index) was measured every 10 min.
Therefore, two leukemia cell lines, MOLT-4 and Jurkat, were included as positive controls in this experiment.

The next assay has as its system 6647 ES cells. The assay is described as follows: Cell viability IC50, 6647. The note with it: Homo sapiens. In kind it is cell-based. The method, then: as §3
(§4) To investigate the relationship between the level of CD99 expression and drug sensitivity, the endogenous expression of CD99 was determined in a panel of 9 ES and 13 non-ES cell lines. The recombinant purified CD99-ECD protein was used to generate standard curves for immunoquantification of CD99 expression by immunoblotting (FIGS. 6B and 6C).

The subject of the next assay is A673 ES cells. The assay is described as follows: Cell viability IC50, A673. In kind it is cell-based. The note with it: Homo sapiens. The method, then:
as §3, §4

A further assay concerns SKES-1 ES cells. The assay is described as follows: Cell viability IC50, SKES-1. The note with it: Homo sapiens, SK-ES1. In kind it is cell-based. The method, then: as §3, §4
Another assay relates to TC-71 ES cells. Kind of assay: Cell viability IC50, TC-71. The note with it: for IC50: Homo sapiens; for Fold changes in IC50: TC-71 parental cells, mean ± SD. In kind it is cell-based, human.
Assay [3] concerns RD18 rhabdomyosarcoma cells. Kind of assay: Cell viability IC50, RD18. The conditions noted are these: Homo sapiens, RD18 (RM). In kind it is cell-based. The method, then: as §3, §4
Another assay deals with IOR/OS10 OS cells. Kind of assay: Cell viability IC50, IOR/OS10. In kind it is cell-based. The note with it: Homo sapiens. As to the method: as §3, §4
For a further assay, the system named is TC-CD99-shRNA #2 cells. The conditions noted are these: mean ± SD. As to the method: as §3
(§5) TC-CD99-shRNA clones (TC-CD99-shRNA #1 and TC-CD99-shRNA #2) were established after selection in neomycin (500 μg/ml) (Sigma-Aldrich). The expression of DCK and CD99 was suppressed transiently by using a validated small interfering RNA (siRNA) duplexes targeting coding region (Invitrogen (Carlsbad, Calif.); #s186 and #s8768, respectively). Silencer™ Select Negative Control No. 2 siRNA (Invitrogen) was used as the control. Cells were transfected with DCK or CD99 or control siRNA oligonucleotides using X-tremeGene siRNA transfection reagent (Roche Diagnostics (Basel, Switzerland)) according to the manufacturer's protocol. The cells were analyzed for DCK and CD99 knockdown after 45 or 72 h by immunoblotting.
(§6) Two stable transfectants of TC-71 cell line, TC-CD99-shRNA #1 and TC-CD99-shRNA #2, were generated by using plasmids expressing either a shRNA targeting the 3′ untranslated region (UTR) of CD99 or a scrambled shRNA control.

Assay [4] has as its system TC-CD99-shRNA #1 cells. The conditions noted are these: mean ± SD. The method, then:
as §3, §5, §6

A further assay deals with IOR/MOS OS cells. The assay is described as follows: Cell viability IC50, IOR/MOS. The note with it: Homo sapiens. In kind it is cell-based. The method, then:
as §3, §4

The test system of assay [5] is TC-CD99-shRNA #1 cells. Kind of assay: Soft agar colony formation assay, CD99 knockdown cells. In kind it is cell-based, human.
A further assay deals with A4573 xenografts. Kind of assay: Orthotopic A4573 xenograft, i.p. administration. In kind it is in vivo, SCID/beige mice. As to the method: as §1, §2
The mark [6] stands for this setting: 48 h, read-out: average IC50 concentration for leukemia cell lines.
Setting [7] is: MOLT-4 and Jurkat, read-out: IC50, leukemia cell lines.
[8] abbreviates: H&E, confirmed by caspase-3 immunohistochemistry.

T1 sequence (P14209 23-185): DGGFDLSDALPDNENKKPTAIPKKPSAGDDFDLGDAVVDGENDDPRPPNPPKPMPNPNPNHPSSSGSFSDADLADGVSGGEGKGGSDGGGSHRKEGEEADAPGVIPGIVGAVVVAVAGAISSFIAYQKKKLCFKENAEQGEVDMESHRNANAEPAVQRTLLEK

Regarding `Nc1nc(Cl)nc2c1ncn2[C@H]1C[C@H](O)[C@@H](CO)O1` [cladribine], the tumor growth result in the assay with SKES xenografts (20 mg/kg both) is reported as “less effective”. In addition, in assay [1], the “formation of CD99 homodimers” value is “significantly reduced”. For the same compound, the IC50 was 340 ± 30 nM in assay [2] (setting [6]); less than 1000 nM in [2] (setting [7]); 710 nM in the assay on 6647 ES cells; 7420 nM with A673 ES cells; 430 nM in the assay on SKES-1 ES cells; 500 nM in the assay on TC-71 ES cells (TC-71 (ES), Table 1). Besides, the IC50 was 3670 nM in assay [3], 11400 nM with IOR/OS10 OS cells and more than 30000 nM in the assay on IOR/MOS OS cells. Also, the “Fold changes in IC50” value with TC-71 ES cells was 1.02 ± 0.27 (n = 5). In addition, the “Fold changes in IC50 compared with TC-71 parental cells” value in the assay on TC-CD99-shRNA #2 cells is listed as 2.35; in the assay on TC-CD99-shRNA #2 cells (listed as Cladribine), 2.35 ± 1.43 (n = 2); in the assay on TC-CD99-shRNA #1 cells [4], 2.85; in the assay with TC-CD99-shRNA #1 cells [4] (listed as Cladribine), 2.85 ± 1.13 (n = 4).
In the case of `Nc1nc(Cl)nc2c1ncn2[C@@H]1O[C@H](CO)[C@@H](O)[C@@H]1F` [clofarabine], the “mitotic figures per field” value with SKES xenografts (H&E, 200-fold magnification) is not above 3; in the assay on A4573 xenografts (H&E, 200-fold magnification), not above 3. Besides, the apoptotic cells entry in the assay with SKES xenografts (setting [8]) and in the assay on A4573 xenografts (setting [8]) was “significant increase” in each case. The event-free survival entry with SKES xenografts (i.p. once daily, 20 mg/kg both, vs vehicle) is listed as “significantly improved”; in the assay with A4573 xenografts (i.p. once daily, clofarabine 30 mg/kg, vs vehicle), “significantly improved”. Also, the tumor growth entry was “significant inhibition of tumor growth” in the assay on SKES xenografts (20 mg/kg both) and “significant inhibition of tumor growth” in the assay on A4573 xenografts (i.p., clofarabine 30 mg/kg). Further, the “colony formation in CD99 knockdown cells” value with TC-CD99-shRNA #1 cells [5] is given as “did not result in further decrease”. For the same compound, the “formation of CD99 homodimers” value in [1] is reported as “blocked”. In addition, the IC50 in assay [2] (setting [6]) was 180 ± 10 nM; in assay [2] (setting [7]), less than 1000 nM; with 6647 ES cells, 340 nM; in the assay on A673 ES cells it was 1900 nM; in the assay on SKES-1 ES cells, 300 nM; in the assay with TC-71 ES cells (TC-71 (ES), Table 1), 150 nM. The IC50 with TC-71 ES cells (TC-71 cells, WST-1, 48 h (FIG. 10B)) is 150 nM; in assay [3] it was 970 nM; in the assay with IOR/OS10 OS cells, 1370 nM; with IOR/MOS OS cells, more than 10000 nM. The “Fold changes in IC50” value with TC-71 ES cells was 1.10 ± 0.38 (n = 8). Also, the “Fold changes in IC50 compared with TC-71 parental cells” value in the assay on TC-CD99-shRNA #2 cells is 1.63; in the assay with TC-CD99-shRNA #2 cells (listed as Clofarabine), 1.63 ± 0.54 (n = 5); with TC-CD99-shRNA #1 cells [4], 3.70; in the assay with TC-CD99-shRNA #1 cells [4] (listed as Clofarabine) it was 3.70 ± 2.98 (n = 5).
